Target: human adenosine A2b receptor (Homo sapiens (Human), UniProt P29275)
Assay: Cellular in vitro reporter gene test for A2b receptor activity (CHO-K1, CRE-luciferase, NECA stimulation)
Type: cell-based
Settings: recombinant CHO-K1 cell line, CRE-luciferase reporter, antagonism of EC50 concentration of NECA; in some cases means of several determinations, rounded to two significant figures; read-out: A2b receptor IC50
Method: B-1. Cellular In Vitro Tests for Determining A2b Receptor Activity and Adenosine Receptor Selectivity
In the case of the A2a and A2b cell lines, this is a minimal promoter having a plurality of cAMP-responsive elements (CRE). Stimulation of the Gs-coupled A2b or A2a receptors by NECA ultimately leads, via formation of cAMP, to CRE-dependent induction of luciferase expression, which is detected 3 hours after the start of the incubation with NECA using a detection solution in a suitable luminometer. For testing the antagonists, initially, in a pre-experiment, the concentration of NECA which, at the test day in question, results in half-maximum stimulation of luciferase expression (EC50 concentration) is determined. By joint incubation of this EC50 concentration of NECA with the substances to be tested, it is possible to determine their antagonistic activity.

human adenosine A2b receptor, sequence (P29275 whole entry): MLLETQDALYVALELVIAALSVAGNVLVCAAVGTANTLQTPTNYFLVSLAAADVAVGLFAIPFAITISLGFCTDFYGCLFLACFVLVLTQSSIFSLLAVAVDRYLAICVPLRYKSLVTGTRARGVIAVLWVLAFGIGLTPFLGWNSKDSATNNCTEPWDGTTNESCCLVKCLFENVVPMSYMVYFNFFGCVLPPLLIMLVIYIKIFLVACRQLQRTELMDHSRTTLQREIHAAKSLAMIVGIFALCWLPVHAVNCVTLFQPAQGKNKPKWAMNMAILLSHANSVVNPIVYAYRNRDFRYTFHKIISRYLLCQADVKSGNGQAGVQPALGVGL

Row | SMILES | IC50 [nM]
1 | Cc1c(CN2CCNC2=O)sc2c1c(=O)n(CC(F)F)c(=O)n2CC1CCO1 (racemic) [Example 216, 3-(2,2-Difluoroethyl)-5-methyl-1-(oxetan-2-ylmethyl)-6-[(2-oxoimidazolidin-1-yl)methyl]thieno[2,3-d]pyrimidine-2,4(1H,3H)-dione] | 34
2 | CCCN1CCN(Cc2sc3c(c2C)c(=O)n(CCc2ccccc2)c(=O)n3CCOC)C1=O [Example 240, 1-(2-Methoxyethyl)-5-methyl-6-[(2-oxo-3-propylimidazolidin-1-yl)methyl]-3-(2-phenylethyl)thieno[2,3-d]pyrimidine-2,4(1H,3H)-dione] | 19
3 | CCn1c(=O)c2c(C)c(CN3CCNC3=O)sc2n(CC2CCOC2)c1=O (racemic) [Example 73, 3-Ethyl-5-methyl-6-[(2-oxoimidazolidin-1-yl)methyl]-1-(tetrahydrofuran-3-ylmethyl)thieno[2,3-d]pyrimidine-2,4(1H,3H)-dione (racemate)] | 79
4 | CCn1c(=O)c2c(C)c(CN3CCN(C)C3=O)sc2n(CCC(F)(F)F)c1=O [Example 103, 3-Ethyl-5-methyl-6-[(3-methyl-2-oxoimidazolidin-1-yl)methyl]-1-(3,3,3-trifluoropropyl)thieno[2,3-d]pyrimidine-2,4(1H,3H)-dione] | 3.5
5 | Cc1c(CN2CCN(C)C2=S)sc2c1c(=O)n(CC(F)(F)F)c(=O)n2CCCF [Example 173, 1-(3-Fluoropropyl)-5-methyl-6-[(3-methyl-2-thioxoimidazolidin-1-yl)methyl]-3-(2,2,2-trifluoroethyl)thieno[2,3-d]pyrimidine-2,4(1H,3H)-dione] | 73
6 | CCn1c(=O)c2c(C)c(Cn3[nH]ccc3=O)sc2n(CC2CCCO2)c1=O (racemic) [Example 129, 3-Ethyl-5-methyl-6-[(5-oxo-2,5-dihydro-1H-pyrazol-1-yl)methyl]-1-(tetrahydrofuran-2-ylmethyl)thieno[2,3-d]pyrimidine-2,4(1H,3H)-dione] | 19
7 | CCn1c(=O)c2c(C)c(Cn3[nH]ccc3=O)sc2n(CC2CCCO2)c1=O (single isomer, unassigned) [Example 130, 3-Ethyl-5-methyl-6-[(5-oxo-2,5-dihydro-1H-pyrazol-1-yl)methyl]-1-(tetrahydrofuran-2-ylmethyl)thieno[2,3-d]pyrimidine-2,4(1H,3H)-dione] | 30
8 | CCn1c(=O)c2c(C)c(CN3CCNC3=S)sc2n(CC2CCCO2)c1=O (single isomer, unassigned) [Example 139, 3-Ethyl-5-methyl-1-(tetrahydrofuran-2-ylmethyl)-6-[(2-thioxoimidazolidin-1-yl)methyl]thieno[2,3-d]pyrimidine-2,4(1H,3H)-dione] | 2.8
9 | Cc1c(CN2CCNC2=O)sc2c1c(=O)n(C(C)C)c(=O)n2CC1COC1 [Example 189, 3-Isopropyl-5-methyl-1-(oxetan-3-ylmethyl)-6-[(2-oxoimidazolidin-1-yl)methyl]thieno[2,3-d]pyrimidine-2,4(1H,3H)-dione] | 17
10 | CCn1c(=O)c2c(C)c(CN3CCC3=O)sc2n(CCC(F)(F)F)c1=O [Example 2, 3-Ethyl-5-methyl-6-[(2-oxoazetidin-1-yl)methyl]-1-(3,3,3-trifluoropropyl)thieno[2,3-d]pyrimidine-2,4(1H,3H)-dione] | 11
11 | CCn1c(=O)c2c(C)c(CN3CCNC3=O)sc2n(Cc2nonc2C)c1=O [Example 82, 3-Ethyl-5-methyl-1-[(4-methyl-1,2,5-oxadiazol-3-yl)methyl]-6-[(2-oxoimidazolidin-1-yl)methyl]thieno[2,3-d]pyrimidine-2,4(1H,3H)-dione] | 17
12 | COCCn1c(=O)n(CC(C)OC)c(=O)c2c(C)c(CN3CCNC3=O)sc21 (single isomer, unassigned) [Example 235, 1-(2-Methoxyethyl)-3-(2-methoxypropyl)-5-methyl-6-[(2-oxoimidazolidin-1-yl)methyl]thieno[2,3-d]pyrimidine-2,4(1H,3H)-dione] | 38
13 | CCOCCn1c(=O)c2c(C)c(CN3CCNC3=S)sc2n(CCC(F)(F)F)c1=O [Example 301, 3-(2-Ethoxyethyl)-5-methyl-6-[(2-thioxoimidazolidin-1-yl)methyl]-1-(3,3,3-trifluoropropyl)thieno[2,3-d]pyrimidine-2,4(1H,3H)-dione] | 6.5
14 | CCn1c(=O)c2c(C)c(CN3CCNC3=O)sc2n(CC(C)OC)c1=O (racemic) [Example 62, 3-Ethyl-1-(2-methoxypropyl)-5-methyl-6-[(2-oxoimidazolidin-1-yl)methyl]thieno[2,3-d]pyrimidine-2,4(1H,3H)-dione (racemate)] | 72

The remaining lines, values ahead:

Row | IC50 [nM] | SMILES
15 | 58 | COCCn1c(=O)n(CC(F)(F)F)c(=O)c2c(C)c(Cn3nc[nH]c3=O)sc21 [Example 433, 1-(2-Methoxyethyl)-5-methyl-6-[(5-oxo-4,5-dihydro-1H-1,2,4-triazol-1-yl)methyl]-3-(2,2,2-trifluoroethyl)thieno[2,3-d]pyrimidine-2,4(1H,3H)-dione]
16 | 7.4 | Cc1c(CN2CCNC2=NC#N)sc2c1c(=O)n(CC(C)(C)C)c(=O)n2CCC(F)(F)F [Example 443, [1-{[3-(2,2-Dimethylpropyl)-5-methyl-2,4-dioxo-1-(3,3,3-trifluoropropyl)-1,2,3,4-tetrahydrothieno[2,3-d]pyrimidin-6-yl]methyl}imidazolidin-2-ylidene]cyanamide]
17 | 120 | COCCn1c(=O)n(CC2CCCO2)c(=O)c2c(C)c(CN3CCNC3=O)sc21 (single isomer, unassigned) [Example 334, 1-(2-Methoxyethyl)-5-methyl-6-[(2-oxoimidazolidin-1-yl)methyl]-3-(tetrahydrofuran-2-ylmethyl)thieno[2,3-d]pyrimidine-2,4(1H,3H)-dione]
18 | 28 | COCCn1c(=O)c2c(C)c(CN3CCNC3=NC(=O)OC)sc2n(CC2CCCO2)c1=O (racemic) [Example 390, Methyl [1-{[3-(2-methoxyethyl)-5-methyl-2,4-dioxo-1-(tetrahydrofuran-2-ylmethyl)-1,2,3,4-tetrahydrothieno[2,3-d]pyrimidin-6-yl]methyl}imidazolidin-2-ylidene]carbamate]
19 | 12 | Cc1c(Cn2cc[nH]c2=O)sc2c1c(=O)n(CC(F)(F)F)c(=O)n2CC1CCCO1 (racemic) [Example 341, 5-Methyl-6-[(2-oxo-2,3-dihydro-1H-imidazol-1-yl)methyl]-1-(tetrahydrofuran-2-ylmethyl)-3-(2,2,2-trifluoroethyl)thieno[2,3-d]pyrimidine-2,4(1H,3H)-dione]
20 | 65 | COCCn1c(=O)c2c(C)c(CN3CCNC3=O)sc2n(CC2CCCO2)c1=O (single isomer, unassigned) [Example 325, 3-(2-Methoxyethyl)-5-methyl-6-[(2-oxoimidazolidin-1-yl)methyl]-1-(tetrahydrofuran-2-ylmethyl)thieno[2,3-d]pyrimidine-2,4(1H,3H)-dione]
21 | 270 | COCCn1c(=O)n(CC2COC2)c(=O)c2c(C)c(CN3CCNC3=O)sc21 [Example 335, 1-(2-Methoxyethyl)-5-methyl-3-(oxetan-3-ylmethyl)-6-[(2-oxoimidazolidin-1-yl)methyl]thieno[2,3-d]pyrimidine-2,4(1H,3H)-dione]
22 | 73 | Cc1c(CN2CCN(C(C)C)C2=S)sc2c1c(=O)n(CC(C)C)c(=O)n2CCCF [Example 304, 1-(3-Fluoropropyl)-3-isobutyl-6-[(3-isopropyl-2-thioxoimidazolidin-1-yl)methyl]-5-methylthieno[2,3-d]pyrimidine-2,4(1H,3H)-dione]

Reference: patent US10428083B2, “Heterocyclylmethyl-thienouracile as antagonists of the adenosine-A2B-receptor” (BAYER PHARMA AKTIENGESELLSCHAFT, priority 2015, dated 2019)
